Where “and” joins values, the source holds several entries; their conditions need not be identical. Equal values may be shown once. Toxic doses and inconclusive results are not listed. Rule as the data show it: active = T/C of 150% or more; inactive = T/C below 125%.
System: L1210 leukemia ip in BDF1 mice, survival T/C
Assay: NCI In Vivo Anticancer Drug Screen. Data for tumor model L1210 Leukemia (intraperitoneal) in B6D2F1 (BDF1) mice
Conditions: endpoint: mean survival time, higher = longer survival
In short: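 Ratio derived from survival: compound-dosed mice over vehicle-dosed mice, all bearing a transplantable tumor.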

[1] = dose: 100.0 mg/kg/injection, schedule: Q04DX003 (ip), vehicle: saline with Tween-80
[2] = dose: 50.0 mg/kg/injection, schedule: Q01DX009 (ip), vehicle: saline with Tween-80
[3] = dose: 100.0 mg/kg/injection, schedule: Q01DX009 (ip), vehicle: saline with Tween-80
[4] = dose: 200.0 mg/kg/injection, schedule: Q01DX009 (ip), vehicle: saline with Tween-80
[5] = dose: 200.0 mg/kg/injection, schedule: Q04DX003 (ip), vehicle: saline with Tween-80
[6] = dose: 400.0 mg/kg/injection, schedule: Q04DX003 (ip), vehicle: saline with Tween-80
[7] = dose: 25.0 mg/kg/injection, schedule: Q01DX001 (ip), vehicle: Klucel (hydroxypropylcellulose) (HPC)
[8] = dose: 50.0 mg/kg/injection, schedule: Q01DX001 (ip), vehicle: Klucel (hydroxypropylcellulose) (HPC)
[9] = dose: 100.0 mg/kg/injection, schedule: Q01DX001 (ip), vehicle: Klucel (hydroxypropylcellulose) (HPC)
[10] = dose: 100.0 mg/kg/injection, schedule: Q01DX001 (ip), vehicle: saline
[11] = dose: 200.0 mg/kg/injection, schedule: Q01DX001 (ip), vehicle: saline
[12] = dose: 75.0 mg/kg/injection, schedule: Q01DX001 (ip), vehicle: saline
[13] = dose: 150.0 mg/kg/injection, schedule: Q01DX001 (ip), vehicle: saline
[14] = dose: 25.0 mg/kg/injection, schedule: Q01DX009 (ip), vehicle: water
[15] = dose: 50.0 mg/kg/injection, schedule: Q01DX009 (ip), vehicle: water
[16] = dose: 100.0 mg/kg/injection, schedule: Q01DX009 (ip), vehicle: water
[17] = dose: 100.0 mg/kg/injection, schedule: Q01DX009 (ip), vehicle: saline
[18] = dose: 200.0 mg/kg/injection, schedule: Q01DX009 (ip), vehicle: saline
[19] = dose: 400.0 mg/kg/injection, schedule: Q01DX009 (ip), vehicle: saline

Measured: T/C

C=C(C)C1Cc2c(ccc3c2OC2COc4cc(OC)c(OC)cc4C2(O)C3=O)O1 (stereo not drawn)
inactive: dose: 12.5 mg/kg/injection, schedule: Q01DX009 (ip), vehicle: carboxymethylcellulose (CMC) 107 % of control

N#Cc1cn(C2CCCCC2)c2ncccc12
inactive: dose: 25.0 mg/kg/injection, schedule: Q04DX003 (ip), vehicle: saline with Tween-80 90 % of control | dose: 50.0 mg/kg/injection, schedule: Q04DX003 (ip), vehicle: saline with Tween-80 97 % of control | [1] 93 % of control

CC(=O)N(N=Nc1ccc(Cl)cc1)c1ccc(Cl)cc1
inactive: [2] 98 % of control | [3] 98 % of control | [4] 98 % of control

CCOc1cc(-c2nc(-c3ccc(N=Cc4ccc(N(CCCOS(C)(=O)=O)CCCOS(C)(=O)=O)cc4C)cc3)cs2)ccc1OCc1ccccc1
inactive: [1] 91 % of control | [5] 86 % of control | [6] 89 % of control

O=c1[nH]c(-c2cccc([N+](=O)[O-])c2)nc2[nH]ncc12
inactive: [7] 94 % of control | [8] 94 % of control | [9] 98 % of control

Nc1ccc(CCCNc2c(N)nc(N)nc2-c2ccccc2)cc1
inactive: dose: 50.0 mg/kg/injection, schedule: Q01DX001 (ip), vehicle: saline 100 % of control | [10] 103 % of control | [11] 94 % of control

O=c1[nH]c(Nc2ccccc2)c(-c2ccccc2)c(=O)[nH]1
inactive: dose: 47.5 mg/kg/injection, schedule: Q01DX001 (ip), vehicle: gum acacia 98 % of control | dose: 95.0 mg/kg/injection, schedule: Q01DX001 (ip), vehicle: gum acacia 88 % of control | dose: 190.0 mg/kg/injection, schedule: Q01DX001 (ip), vehicle: gum acacia 114 % of control

C=CCCCCCCCCC(=O)NCc1ccncc1
inactive: [1] 90 % of control

Cc1nc2c(N)nnc(N)c2nc1C
inactive: [7] 97 % of control | [8] 93 % of control | [9] 95 % of control | dose: 100.0 mg/kg/injection, schedule: Q01DX009 (ip), vehicle: Klucel (hydroxypropylcellulose) (HPC) 100 % of control

CN1CC(=O)N=C1N
inactive: [10] 92 % of control | [11] 103 % of control | dose: 200.0 mg/kg/injection, schedule: Q01DX015 (ip), vehicle: saline 91 % of control | dose: 250.0 mg/kg/injection, schedule: Q#A X Z (ip), vehicle: water 109 % of control | dose: 400.0 mg/kg/injection, schedule: Q01DX001 (ip), vehicle: saline 92 % of control | dose: 400.0 mg/kg/injection, schedule: Q01DX015 (ip), vehicle: saline 121 % of control | dose: 500.0 mg/kg/injection, schedule: Q#A X Z (ip), vehicle: water 100 % of control | dose: 800.0 mg/kg/injection, schedule: Q01DX015 (ip), vehicle: saline 94 % of control | dose: 1250.0 mg/kg/injection, schedule: Q#A X Z (ip), vehicle: water 100 % of control | dose: 1600.0 mg/kg/injection, schedule: Q01DX015 (ip), vehicle: saline 100 % of control

O=C1CCC2C3CCC(=O)C3C12 (stereo not drawn)
inactive: [12] 102 % of control | [13] 97 % of control

CCCCN(CCCC)P(=S)(OCC)OCC
inactive: [1] 100 % of control | [5] 102 % of control | [6] 104 % of control

CCCCCCCC(=O)NCCCCC
inactive: dose: 50.0 mg/kg/injection, schedule: Q01DX001 (ip), vehicle: carboxymethylcellulose (CMC) 98 % of control | dose: 50.0 mg/kg/injection, schedule: Q01DX009 (ip), vehicle: carboxymethylcellulose (CMC) 97 % of control and 113 % of control | dose: 50.0 mg/kg/injection, schedule: Q04DX003 (ip), vehicle: carboxymethylcellulose (CMC) 103 % of control | dose: 100.0 mg/kg/injection, schedule: Q01DX001 (ip), vehicle: carboxymethylcellulose (CMC) 105 % of control | dose: 100.0 mg/kg/injection, schedule: Q01DX009 (ip), vehicle: carboxymethylcellulose (CMC) 108 % of control | dose: 100.0 mg/kg/injection, schedule: Q04DX002 (ip), vehicle: carboxymethylcellulose (CMC) 94 % of control | dose: 100.0 mg/kg/injection, schedule: Q04DX003 (ip), vehicle: carboxymethylcellulose (CMC) 96 % of control | dose: 200.0 mg/kg/injection, schedule: Q01DX001 (ip), vehicle: carboxymethylcellulose (CMC) 100 % of control | dose: 200.0 mg/kg/injection, schedule: Q01DX009 (ip), vehicle: carboxymethylcellulose (CMC) 104 % of control and 90 % of control | dose: 200.0 mg/kg/injection, schedule: Q04DX002 (ip), vehicle: carboxymethylcellulose (CMC) 96 % of control | dose: 200.0 mg/kg/injection, schedule: Q04DX003 (ip), vehicle: carboxymethylcellulose (CMC) 98 % of control | dose: 400.0 mg/kg/injection, schedule: Q04DX002 (ip), vehicle: carboxymethylcellulose (CMC) 96 % of control

c1ccc2c(c1)Cc1ccccc1CN(CCNC1=NCCN1)C2
inactive: dose: 25.0 mg/kg/injection, schedule: Q01DX009 (ip), vehicle: saline with Tween-80 91 % of control | [2] 102 % of control | [1] 98 % of control

OC(C[n+]1ccsc1)c1ccccc1 (stereo not drawn)
inactive: [12] 96 % of control | [13] 100 % of control

COc1cccc(C(=O)O)c1C(=O)c1ccc(C)cc1O
inactive: [1] 100 % of control | [5] 97 % of control | [6] 90 % of control

CCOC(=O)C(=O)Cc1ccccc1[N+](=O)[O-]
inactive: [9] 96 % of control | dose: 200.0 mg/kg/injection, schedule: Q01DX001 (ip), vehicle: Klucel (hydroxypropylcellulose) (HPC) 102 % of control | dose: 400.0 mg/kg/injection, schedule: Q01DX001 (ip), vehicle: Klucel (hydroxypropylcellulose) (HPC) 95 % of control

CC(C)=CCC(CCN(C)C)(C(N)=O)c1ccc2ccccc2c1 (stereo not drawn)
inactive: dose: 12.5 mg/kg/injection, schedule: Q01DX009 (ip), vehicle: Klucel (hydroxypropylcellulose) (HPC) 93 % of control | dose: 25.0 mg/kg/injection, schedule: Q01DX009 (ip), vehicle: Klucel (hydroxypropylcellulose) (HPC) 86 % of control | dose: 50.0 mg/kg/injection, schedule: Q01DX009 (ip), vehicle: Klucel (hydroxypropylcellulose) (HPC) 91 % of control

C/[N+]([O-])=N\Nc1c(Cl)cc(Cl)cc1Cl
inactive: [2] 94 % of control | [3] 105 % of control | [4] 102 % of control

O=P(Oc1ccccc1)(Oc1ccccc1)C(Nc1ccccc1)c1cccnc1 (stereo not drawn)
inactive: [1] 89 % of control | [5] 103 % of control

O=Cc1ccc(Oc2ccc([N+](=O)[O-])cc2[N+](=O)[O-])cc1
inactive: [14] 96 % of control | [15] 102 % of control | [16] 104 % of control | dose: 200.0 mg/kg/injection, schedule: Q01DX009 (ip), vehicle: water 95 % of control | dose: 400.0 mg/kg/injection, schedule: Q01DX009 (ip), vehicle: water 98 % of control

CC1CC2C(CC1O)C2(C)C (stereo not drawn)
inactive: [17] 97 % of control | dose: 100.0 mg/kg/injection, schedule: Q04DX003 (ip), vehicle: saline 94 % of control | [18] 101 % of control | dose: 200.0 mg/kg/injection, schedule: Q04DX003 (ip), vehicle: saline 94 % of control | [19] 106 % of control | dose: 400.0 mg/kg/injection, schedule: Q04DX003 (ip), vehicle: saline 91 % of control

COc1cc(N(CCCl)CCCl)ccc1C=Nc1ccc2c(c1)ncn2C
inactive: dose: 75.0 mg/kg/injection, schedule: Q04DX002 (ip), vehicle: Klucel (hydroxypropylcellulose) (HPC) 112 % of control | dose: 150.0 mg/kg/injection, schedule: Q04DX002 (ip), vehicle: Klucel (hydroxypropylcellulose) (HPC) 101 % of control | dose: 300.0 mg/kg/injection, schedule: Q04DX002 (ip), vehicle: Klucel (hydroxypropylcellulose) (HPC) 108 % of control

C/C=C/C(OCC)OCC
inactive: [14] 105 % of control | [15] 111 % of control | [16] 106 % of control

CN(C)CCC(N)c1cccc2ccccc12 (stereo not drawn)
inactive: dose: 25.0 mg/kg/injection, schedule: Q04DX002 (ip), vehicle: saline with Tween-80 91 % of control | dose: 50.0 mg/kg/injection, schedule: Q04DX002 (ip), vehicle: saline with Tween-80 116 % of control | dose: 100.0 mg/kg/injection, schedule: Q04DX002 (ip), vehicle: saline with Tween-80 98 % of control

O=C1OC(CO)C(OC2OC(CO)C(O)C(O)C2O)C(O)C1O (stereo not drawn)
inactive: [17] 97 % of control | [18] 98 % of control | [19] 97 % of control

— PubChem BioAssay AID248 (DTP/NCI, 2004)
